Holding throughout (experiment): NCI anticancer screen, dose series, 48 h
The subject of test [1] is LXFL 529 NSCLC.
The subject of test [2] is RXF-631 renal.
The subject of test [3] is DMS 114 small cell lung.
Test [4] concerns KM20L2 colon.
The test system of test [5] is SN12K1 renal.
Test [6] relates to 786-0 renal.

TGI data for four molecules are collected here from PubChem BioAssay (NCI).

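Results reflect a 48-hour exposure of cells in 96-well plates to compound at five concentrations. Definition used: TGI = concentration required for complete inhibition of growth.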

For the molecule `N=C(N)c1csc([C@@H]2O[C@H](CO)[C@@H](O)[C@H]2O)n1`, the TGI in test [1] and in test [2] was greater than 100 µM throughout.
For the molecule `COC(=O)c1ccc(N=NN(C)COc2ccc([N+](=O)[O-])cc2)cc1`, the TGI in test [3], in test [4] and in test [5] was greater than 100 µM each time.
On to `NNc1nc2ccccc2s1`, for which the TGI in test [6] was greater than 100 µM.
For `O=C(O)C1Cc2c([nH]c3ccccc23)C=N1` (stereo not drawn), the TGI in test [3] and in test [4] was greater than 100 µM in each case.
